According to patent publication US20240034726A9, “MAP KINASE KINASE (MKK7) INHIBITORS AND USES THEREOF” (Dana-Farber Cancer Institute, Inc., priority 2020, published 2024):

Experiments:
Assay in all cases: KINOMEscan
Type in all cases: binding
[1] = biological target: T1, CDK3 (Homo sapiens, UniProt Q00526)
T1 construct: purchased KINOMEscan (Ambit)
Excerpt: (§1) The activity of the compounds was confirmed using Compound S-(I-1) in the KINOMEscan screening platform.

[2] = biological target: T2, LZK (Homo sapiens, UniProt O43283)
T2 construct: purchased KINOMEscan screening platform (Ambit)
Excerpt: as §1

[3] = biological target: T3, ITK (Homo sapiens, UniProt Q08881)
T3 construct: purchased KINOMEscan (Ambit) screening platform
Excerpt: as §1

[4] = biological target: T4, EGFR(S752-I759del) (Homo sapiens, UniProt P00533, DEL752-759)
T4 construct: purchased KINOMEscan (Ambit)
Excerpt: as §1

[5] = biological target: T5, CHEK1 (Homo sapiens, UniProt O14757)
T5 construct: purchased KINOMEscan (Ambit) screening platform
Excerpt: as §1

[6] = biological target: T6, RSK4(Kin.Dom.2-C-terminal) (Homo sapiens, UniProt Q9UK32)
T6 construct: Kin.Dom.2; purchased KINOMEscan (Ambit)
Excerpt: as §1

[7] = biological target: T7, MAP4K3 (Homo sapiens, UniProt Q8IVH8)
T7 construct: purchased KINOMEscan screening platform (Ambit)
Excerpt: as §1

[8] = biological target: T8, JAK1(JH2domain-pseudokinase) (Homo sapiens, UniProt P23458)
T8 construct: JAK1(JH2domain-; purchased KINOMEscan (Ambit) screening platform
Excerpt: as §1

[9] = biological target: T9, TYK2(JH1domain-catalytic) (Homo sapiens, UniProt P29597)
T9 construct: TYK2(JH1domain); purchased KINOMEscan (Ambit) screening platform
Excerpt: as §1

[10] = biological target: T10, PKMYT1 (Homo sapiens, UniProt Q99640)
T10 construct: purchased KINOMEscan (Ambit) screening platform
Excerpt: as §1

[11] = biological target: T11, JAK2(JH1domain-catalytic) (Homo sapiens, UniProt O60674)
T11 construct: JAK2(JH1domain-; purchased KINOMEscan (Ambit) screening platform
Excerpt: as §1

[12] = biological target: T12, EGFR(L747-S752del, P753S) (Homo sapiens, UniProt P00533, DEL747-752/P753S)
T12 construct: purchased KINOMEscan (Ambit)
Excerpt: as §1

[13] = biological target: T13, DLK (Homo sapiens, UniProt Q12852)
T13 construct: purchased KINOMEscan (Ambit)
Excerpt: as §1

[14] = biological target: T14, MKK7 (Homo sapiens, UniProt O14733)
T14 construct: purchased KINOMEscan screening platform (Ambit)
Excerpt: as §1

[15] = biological target: T15, MET(M1250T) (Homo sapiens, UniProt P08581, M1250T)
T15 construct: purchased KINOMEscan screening platform (Ambit)
Excerpt: as §1

[16] = biological target: T16, p38-alpha (Homo sapiens, UniProt Q16539)
T16 construct: purchased KINOMEscan (Ambit)
Excerpt: as §1

[17] = biological target: T17, PLK2 (Homo sapiens, UniProt Q9NYY3)
T17 construct: purchased KINOMEscan (Ambit) screening platform
Excerpt: as §1

[18] = biological target: T18, MET(Y1235D) (Homo sapiens, UniProt P08581, Y1235D)
T18 construct: purchased KINOMEscan screening platform (Ambit)
Excerpt: as §1

[19] = biological target: T19, CDK11 (Homo sapiens, UniProt Q9BWU1)
T19 construct: purchased KINOMEscan (Ambit)
Excerpt: as §1

[20] = biological target: T20, LATS2 (Homo sapiens, UniProt Q9NRM7)
T20 construct: purchased KINOMEscan (Ambit) screening platform
Excerpt: as §1

[21] = biological target: T21, CSK (Homo sapiens, UniProt P41240)
T21 construct: purchased KINOMEscan (Ambit) screening platform
Excerpt: as §1

[22] = biological target: T22, ARK5 (Homo sapiens, UniProt O60285)
T22 construct: purchased KINOMEscan (Ambit)
Excerpt: as §1

[23] = biological target: T23, ULK1 (Homo sapiens, UniProt O75385)
T23 construct: purchased KINOMEscan (Ambit) screening platform
Excerpt: as §1

[24] = biological target: T24, CSNK1G2 (Homo sapiens, UniProt P78368)
T24 construct: purchased KINOMEscan (Ambit) screening platform
Excerpt: as §1

[25] = biological target: T25, EGFR(T790M) (Homo sapiens, UniProt P00533, T790M)
T25 construct: purchased KINOMEscan (Ambit)
Excerpt: as §1

[26] = biological target: T26, CSNK1G3 (Homo sapiens, UniProt Q9Y6M4)
T26 construct: purchased KINOMEscan (Ambit) screening platform
Excerpt: as §1

[27] = biological target: T27, LOK (Homo sapiens, UniProt O94804)
T27 construct: purchased KINOMEscan (Ambit) screening platform
Excerpt: as §1

[28] = biological target: T28, BTK (Homo sapiens, UniProt Q06187)
T28 construct: purchased KINOMEscan (Ambit)
Excerpt: as §1

[29] = biological target: T29, JNK3 (Homo sapiens, UniProt P53779)
T29 construct: purchased KINOMEscan (Ambit) screening platform
Excerpt: as §1

[30] = biological target: T30, SIK (Homo sapiens, UniProt P57059)
T30 construct: purchased KINOMEscan (Ambit)
Excerpt: as §1

[31] = biological target: T31, IRAK4 (Homo sapiens, UniProt Q9NWZ3)
T31 construct: purchased KINOMEscan (Ambit) screening platform
Excerpt: as §1

[32] = biological target: T32, EGFR(L861Q) (Homo sapiens, UniProt P00533, L861Q)
T32 construct: purchased KINOMEscan (Ambit)
Excerpt: as §1

[33] = biological target: T33, EPHA5 (Homo sapiens, UniProt P54756)
T33 construct: purchased KINOMEscan (Ambit)
Excerpt: as §1

[34] = biological target: T34, MST3 (Homo sapiens, UniProt Q9Y6E0)
T34 construct: purchased KINOMEscan screening platform (Ambit)
Excerpt: as §1

[35] = biological target: T35, EGFR(L858R, T790M) (Homo sapiens, UniProt P00533, L858R/T790M)
T35 construct: purchased KINOMEscan (Ambit)
Excerpt: as §1

[36] = biological target: T36, CSNK1G1 (Homo sapiens, UniProt Q9HCP0)
T36 construct: purchased KINOMEscan (Ambit) screening platform
Excerpt: as §1

[37] = biological target: T37, JAK1(JH1domain-catalytic) (Homo sapiens, UniProt P23458)
T37 construct: JAK1(JH1domain); purchased KINOMEscan (Ambit) screening platform
Excerpt: as §1

[38] = biological target: T38, EPHB2 (Homo sapiens, UniProt P29323)
T38 construct: purchased KINOMEscan (Ambit)
Excerpt: as §1

[39] = biological target: T39, CDK2 (Homo sapiens, UniProt P24941)
T39 construct: purchased KINOMEscan (Ambit)
Excerpt: as §1

[40] = biological target: T40, JNK1 (Homo sapiens, UniProt P45983)
T40 construct: purchased KINOMEscan (Ambit) screening platform
Excerpt: as §1

[41] = biological target: T41, CIT (Homo sapiens, UniProt O14578)
T41 construct: purchased KINOMEscan (Ambit) screening platform
Excerpt: as §1

[42] = biological target: T42, SYK (Homo sapiens, UniProt P43405)
T42 construct: purchased KINOMEscan (Ambit)
Excerpt: as §1

[43] = biological target: T43, WNK1 (Homo sapiens, UniProt Q9H4A3)
T43 construct: purchased KINOMEscan (Ambit) screening platform
Excerpt: as §1

[44] = system: EGFR(L747-T751del, Sins)
Excerpt: as §1

[45] = biological target: T44, SNARK (Homo sapiens, UniProt Q9H093)
T44 construct: purchased KINOMEscan (Ambit)
Excerpt: as §1

[46] = biological target: T45, PIP5K1C (Homo sapiens, UniProt O60331)
T45 construct: purchased KINOMEscan (Ambit) screening platform
Excerpt: as §1

[47] = biological target: T46, CDC2L5 (Homo sapiens, UniProt Q14004)
T46 construct: purchased KINOMEscan (Ambit)
Excerpt: as §1

[48] = biological target: T47, EGFR(G719S) (Homo sapiens, UniProt P00533, G719S)
T47 construct: purchased KINOMEscan (Ambit)
Excerpt: as §1

[49] = biological target: T48, MLK3 (Homo sapiens, UniProt Q16584)
T48 construct: purchased KINOMEscan screening platform (Ambit)
Excerpt: as §1

[50] = biological target: T49, ULK3 (Homo sapiens, UniProt Q6PHR2)
T49 construct: purchased KINOMEscan (Ambit) screening platform
Excerpt: as §1

[51] = biological target: T50, ACVR2B (Homo sapiens, UniProt Q13705)
T50 construct: purchased KINOMEscan (Ambit)
Excerpt: as §1

[52] = biological target: T51, CDK8 (Homo sapiens, UniProt P49336)
T51 construct: purchased KINOMEscan (Ambit)
Excerpt: as §1

[53] = biological target: T52, EGFR(G719C) (Homo sapiens, UniProt P00533, G719C)
T52 construct: purchased KINOMEscan (Ambit)
Excerpt: as §1

[54] = biological target: T53, RSK4(Kin.Dom.1-N-terminal) (Homo sapiens, UniProt Q9UK32)
T53 construct: Kin.Dom.1; purchased KINOMEscan (Ambit)
Excerpt: as §1

[55] = biological target: T54, QSK (Homo sapiens, UniProt Q9Y2K2)
T54 construct: KINOMEscan (Ambit)
Excerpt: as §1

[56] = system: FLT3(ITD)
Excerpt: as §1

[57] = biological target: T55, EGFR (Homo sapiens, UniProt P00533)
T55 construct: purchased KINOMEscan (Ambit)
Excerpt: as §1

[58] = biological target: T56, PFTK1 (Homo sapiens, UniProt O94921)
T56 construct: purchased KINOMEscan screening platform (Ambit)
Excerpt: as §1

[59] = biological target: T57, MST1 (Homo sapiens, UniProt Q13043)
T57 construct: purchased KINOMEscan screening platform (Ambit)
Excerpt: as §1

[60] = biological target: T58, EGFR(L858R) (Homo sapiens, UniProt P00533, L858R)
T58 construct: purchased KINOMEscan (Ambit)
Excerpt: as §1

[61] = biological target: T59, EGFR(L747-E749del, A750P) (Homo sapiens, UniProt P00533, A750P/DEL747-749)
T59 construct: purchased KINOMEscan (Ambit)
Excerpt: as §1

[62] = biological target: T60, MET (Homo sapiens, UniProt P08581)
T60 construct: purchased KINOMEscan screening platform (Ambit)
Excerpt: as §1

[63] = biological target: T61, TYK2(JH2domain-pseudokinase) (Homo sapiens, UniProt P29597)
T61 construct: TYK2(JH2domain); purchased KINOMEscan (Ambit) screening platform
Excerpt: as §1

[64] = biological target: T62, EGFR(E746-A750del) (Homo sapiens, UniProt P00533, DEL746-750)
T62 construct: purchased KINOMEscan (Ambit)
Excerpt: as §1

[65] = biological target: T63, BMPR2 (Homo sapiens, UniProt Q13873)
T63 construct: purchased KINOMEscan (Ambit)
Excerpt: as §1

[66] = biological target: T64, DCAMKL1 (Homo sapiens, UniProt O15075)
T64 construct: purchased KINOMEscan (Ambit)
Excerpt: as §1

[67] = biological target: T65, MARK4 (Homo sapiens, UniProt Q96L34)
T65 construct: purchased KINOMEscan screening platform (Ambit)
Excerpt: as §1

[68] = biological target: T66, JNK2 (Homo sapiens, UniProt P45984)
T66 construct: purchased KINOMEscan (Ambit) screening platform
Excerpt: as §1

[69] = biological target: T67, PRKR (Homo sapiens, UniProt P19525)
T67 construct: KINOMEscan (Ambit)
Excerpt: as §1

T60 sequence (P08581 25-1390): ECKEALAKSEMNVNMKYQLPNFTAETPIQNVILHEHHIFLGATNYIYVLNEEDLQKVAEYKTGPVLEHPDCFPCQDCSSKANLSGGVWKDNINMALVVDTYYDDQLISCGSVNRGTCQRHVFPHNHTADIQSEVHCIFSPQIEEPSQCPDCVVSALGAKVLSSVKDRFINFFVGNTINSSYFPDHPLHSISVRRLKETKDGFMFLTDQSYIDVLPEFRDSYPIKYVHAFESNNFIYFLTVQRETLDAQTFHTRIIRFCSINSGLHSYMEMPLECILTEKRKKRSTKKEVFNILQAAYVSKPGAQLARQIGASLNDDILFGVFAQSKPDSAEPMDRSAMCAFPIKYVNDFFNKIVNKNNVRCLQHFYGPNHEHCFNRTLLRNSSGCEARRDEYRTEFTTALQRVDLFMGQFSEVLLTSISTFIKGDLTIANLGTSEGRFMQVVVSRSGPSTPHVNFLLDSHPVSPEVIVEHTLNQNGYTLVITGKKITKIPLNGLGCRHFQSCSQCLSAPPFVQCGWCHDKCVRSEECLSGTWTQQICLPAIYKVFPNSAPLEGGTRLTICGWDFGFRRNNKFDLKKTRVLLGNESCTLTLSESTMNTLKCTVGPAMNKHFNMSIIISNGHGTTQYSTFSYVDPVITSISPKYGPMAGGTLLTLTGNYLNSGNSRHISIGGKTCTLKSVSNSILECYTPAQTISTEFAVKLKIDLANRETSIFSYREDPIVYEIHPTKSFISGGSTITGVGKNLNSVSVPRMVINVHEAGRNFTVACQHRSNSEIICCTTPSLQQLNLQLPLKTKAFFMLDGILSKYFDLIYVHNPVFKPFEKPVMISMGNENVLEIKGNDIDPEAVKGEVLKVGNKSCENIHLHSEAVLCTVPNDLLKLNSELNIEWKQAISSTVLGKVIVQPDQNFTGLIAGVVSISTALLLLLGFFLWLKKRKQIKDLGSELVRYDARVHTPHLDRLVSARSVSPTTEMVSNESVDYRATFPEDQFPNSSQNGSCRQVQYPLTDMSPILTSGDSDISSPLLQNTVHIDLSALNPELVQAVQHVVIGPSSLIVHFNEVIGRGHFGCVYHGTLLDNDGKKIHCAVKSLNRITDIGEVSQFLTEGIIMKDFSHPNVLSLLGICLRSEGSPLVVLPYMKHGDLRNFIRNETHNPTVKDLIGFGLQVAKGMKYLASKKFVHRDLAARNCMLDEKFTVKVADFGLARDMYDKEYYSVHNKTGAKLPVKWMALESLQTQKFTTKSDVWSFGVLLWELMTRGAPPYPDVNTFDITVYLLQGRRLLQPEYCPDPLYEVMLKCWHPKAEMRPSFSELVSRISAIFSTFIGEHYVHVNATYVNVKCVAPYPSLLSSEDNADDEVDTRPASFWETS
T52 sequence (P00533 25-1210 G719C): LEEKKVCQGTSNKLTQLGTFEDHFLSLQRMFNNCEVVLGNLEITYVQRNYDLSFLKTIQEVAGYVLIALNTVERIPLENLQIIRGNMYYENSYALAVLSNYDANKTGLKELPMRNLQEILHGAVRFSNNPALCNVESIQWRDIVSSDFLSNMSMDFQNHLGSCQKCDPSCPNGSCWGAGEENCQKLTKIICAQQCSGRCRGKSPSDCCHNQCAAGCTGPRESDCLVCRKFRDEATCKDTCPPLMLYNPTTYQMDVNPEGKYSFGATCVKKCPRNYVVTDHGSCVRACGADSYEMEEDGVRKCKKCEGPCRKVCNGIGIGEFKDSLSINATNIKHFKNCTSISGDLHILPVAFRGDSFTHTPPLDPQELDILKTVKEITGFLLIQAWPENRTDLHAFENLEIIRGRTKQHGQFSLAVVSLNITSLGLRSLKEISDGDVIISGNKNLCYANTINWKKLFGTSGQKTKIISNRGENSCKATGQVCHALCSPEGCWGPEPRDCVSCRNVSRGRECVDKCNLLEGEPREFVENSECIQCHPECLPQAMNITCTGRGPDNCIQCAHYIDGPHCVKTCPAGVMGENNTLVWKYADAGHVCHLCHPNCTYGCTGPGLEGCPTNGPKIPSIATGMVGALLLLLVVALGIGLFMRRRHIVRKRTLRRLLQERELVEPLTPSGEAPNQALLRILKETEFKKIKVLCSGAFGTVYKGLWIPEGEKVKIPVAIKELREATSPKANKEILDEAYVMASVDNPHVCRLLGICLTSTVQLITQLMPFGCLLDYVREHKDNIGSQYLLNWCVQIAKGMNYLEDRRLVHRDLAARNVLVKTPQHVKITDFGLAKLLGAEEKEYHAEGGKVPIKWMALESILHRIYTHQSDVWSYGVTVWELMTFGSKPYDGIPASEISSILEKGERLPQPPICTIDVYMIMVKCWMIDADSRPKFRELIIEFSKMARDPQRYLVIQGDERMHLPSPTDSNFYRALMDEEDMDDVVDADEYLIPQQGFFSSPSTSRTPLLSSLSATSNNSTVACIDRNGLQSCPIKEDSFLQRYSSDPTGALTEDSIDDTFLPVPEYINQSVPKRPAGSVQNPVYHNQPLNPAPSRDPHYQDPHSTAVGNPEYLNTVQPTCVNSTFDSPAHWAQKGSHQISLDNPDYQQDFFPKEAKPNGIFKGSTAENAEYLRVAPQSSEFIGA
T47 sequence (P00533 25-1210 G719S): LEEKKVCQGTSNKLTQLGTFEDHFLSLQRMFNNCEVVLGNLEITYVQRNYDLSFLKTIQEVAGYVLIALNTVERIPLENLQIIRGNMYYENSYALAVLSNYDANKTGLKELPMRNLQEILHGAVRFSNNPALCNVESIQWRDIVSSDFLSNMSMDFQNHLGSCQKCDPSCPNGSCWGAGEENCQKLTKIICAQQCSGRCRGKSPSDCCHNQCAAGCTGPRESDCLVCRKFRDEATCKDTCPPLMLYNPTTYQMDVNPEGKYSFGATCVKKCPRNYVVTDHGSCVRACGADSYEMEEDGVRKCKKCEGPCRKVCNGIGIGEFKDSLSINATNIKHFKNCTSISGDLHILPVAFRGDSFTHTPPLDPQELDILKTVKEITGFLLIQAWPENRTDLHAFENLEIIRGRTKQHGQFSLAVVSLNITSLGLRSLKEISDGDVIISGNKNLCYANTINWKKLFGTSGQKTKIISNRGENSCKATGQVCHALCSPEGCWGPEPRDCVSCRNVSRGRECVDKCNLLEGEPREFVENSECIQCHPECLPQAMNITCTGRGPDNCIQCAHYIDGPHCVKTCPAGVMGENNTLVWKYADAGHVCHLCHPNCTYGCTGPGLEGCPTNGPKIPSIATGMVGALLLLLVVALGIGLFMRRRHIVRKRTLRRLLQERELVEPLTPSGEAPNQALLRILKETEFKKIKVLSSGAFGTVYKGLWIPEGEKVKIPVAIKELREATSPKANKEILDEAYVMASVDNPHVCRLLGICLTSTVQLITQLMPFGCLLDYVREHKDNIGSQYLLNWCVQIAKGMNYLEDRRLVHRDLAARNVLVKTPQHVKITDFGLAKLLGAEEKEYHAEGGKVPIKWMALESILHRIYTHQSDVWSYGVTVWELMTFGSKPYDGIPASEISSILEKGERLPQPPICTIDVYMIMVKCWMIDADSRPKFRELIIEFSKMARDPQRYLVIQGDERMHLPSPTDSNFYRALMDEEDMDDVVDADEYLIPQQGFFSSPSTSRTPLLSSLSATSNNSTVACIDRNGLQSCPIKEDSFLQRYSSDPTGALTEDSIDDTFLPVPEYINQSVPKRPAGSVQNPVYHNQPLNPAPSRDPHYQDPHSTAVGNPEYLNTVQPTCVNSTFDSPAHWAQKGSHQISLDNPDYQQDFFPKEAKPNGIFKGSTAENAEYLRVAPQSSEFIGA
T29 sequence (P53779 whole entry): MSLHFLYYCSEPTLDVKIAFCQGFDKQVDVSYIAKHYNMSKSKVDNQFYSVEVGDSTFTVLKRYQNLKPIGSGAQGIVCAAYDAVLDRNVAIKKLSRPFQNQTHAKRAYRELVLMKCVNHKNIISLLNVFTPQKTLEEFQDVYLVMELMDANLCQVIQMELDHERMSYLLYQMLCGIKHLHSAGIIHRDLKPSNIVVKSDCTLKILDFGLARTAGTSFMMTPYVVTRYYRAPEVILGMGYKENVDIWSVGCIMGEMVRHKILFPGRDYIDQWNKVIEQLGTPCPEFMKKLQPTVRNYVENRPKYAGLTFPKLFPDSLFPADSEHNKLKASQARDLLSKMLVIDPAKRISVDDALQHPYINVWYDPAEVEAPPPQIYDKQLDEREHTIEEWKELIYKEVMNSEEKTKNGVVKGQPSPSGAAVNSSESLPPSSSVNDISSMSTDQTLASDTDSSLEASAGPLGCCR
T31 sequence (Q9NWZ3 whole entry): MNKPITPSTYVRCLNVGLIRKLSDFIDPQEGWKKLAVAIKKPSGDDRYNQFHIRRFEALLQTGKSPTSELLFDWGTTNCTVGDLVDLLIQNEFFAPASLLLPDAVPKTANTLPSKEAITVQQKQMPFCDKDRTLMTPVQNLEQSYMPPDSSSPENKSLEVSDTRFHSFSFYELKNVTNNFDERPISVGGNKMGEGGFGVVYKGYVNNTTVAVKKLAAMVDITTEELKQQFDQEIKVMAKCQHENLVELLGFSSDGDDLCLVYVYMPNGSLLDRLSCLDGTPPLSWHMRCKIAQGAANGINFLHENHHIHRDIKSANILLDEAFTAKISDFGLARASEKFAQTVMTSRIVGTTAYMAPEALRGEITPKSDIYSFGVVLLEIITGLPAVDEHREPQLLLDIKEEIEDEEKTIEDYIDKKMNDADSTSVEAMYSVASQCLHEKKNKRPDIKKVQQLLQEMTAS
T37 sequence (P23458 875-1153 limits assumed): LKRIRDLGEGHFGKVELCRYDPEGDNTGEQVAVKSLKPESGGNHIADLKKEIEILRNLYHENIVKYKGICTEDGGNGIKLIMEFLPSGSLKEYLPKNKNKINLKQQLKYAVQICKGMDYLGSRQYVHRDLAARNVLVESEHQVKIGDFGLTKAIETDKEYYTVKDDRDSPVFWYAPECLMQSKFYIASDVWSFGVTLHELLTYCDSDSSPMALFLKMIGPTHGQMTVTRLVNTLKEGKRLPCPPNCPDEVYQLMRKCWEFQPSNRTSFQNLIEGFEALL

Structure (SMILES): C=CC(=O)N1CCC(Nc2nccc(Oc3cc(C(=O)Nc4ccc(CN5CCN(CC)CC5)c(C(F)(F)F)c4)ccc3C)n2)C1 (stereo not drawn) [S-(I-1)]
- Score [1]: 56
- Score [2]: 100
- Score [3]: 98
- Score [4]: 90
- Score [5]: 100
- Score [6]: 91
- Score [7]: 93
- Score [8]: 100
- Score [9]: 91
- Score [10]: 89
- Score [11]: 84
- Score [12]: 38
- Score [13]: 90
- Score [14]: 0.9
- Score [15]: 99
- Score [16]: 0
- Score [17]: 89
- Score [18]: 96
- Score [19]: 0
- Score [20]: 100
- Score [21]: 58
- Score [22]: 83
- Score [23]: 94
- Score [24]: 97
- Score [25]: 90
- Score [26]: 92
- Score [27]: 0.35
- Score [28]: 98
- Score [29]: 52
- Score [30]: 87
- Score [31]: 81
- Score [32]: 66
- Score [33]: 87
- Score [34]: 88
- Score [35]: 94
- Score [36]: 91
- Score [37]: 62
- Score [38]: 91
- Score [39]: 77
- Score [40]: 28
- Score [41]: 61
- Score [42]: 24
- Score [43]: 86
- Score [44]: 43
- Score [45]: 100
- Score [46]: 52
- Score [47]: 65
- Score [48]: 81
- Score [49]: 97
- Score [50]: 78
- Score [51]: 93
- Score [52]: 2.8
- Score [53]: 59
- Score [54]: 90
- Score [55]: 87
- Score [56]: 24
- Score [57]: 68
- Score [58]: 77
- Score [59]: 100
- Score [60]: 84
- Score [61]: 52
- Score [62]: 100
- Score [63]: 92
- Score [64]: 66
- Score [65]: 100
- Score [66]: 99
- Score [67]: 100
- Score [68]: 0.35
- Score [69]: 85
